Data from patent US12678400B2, “Implantable devices for drug delivery with reduced burst release” (TITAN PHARMACEUTICALS, INC., priority 2016, dated 2026).

Assay: Particle size of spray-dried porogen powders by optical microscope
Format: physicochemical
Details: spray dried from ethanol solution
Source text: Citric acid and benzoic acid were spray dried from ethanol solution (10% w/v solids) using a ProCepT model 4M8 system. The citric acid was collected in a single fraction in about 65% yield, while the benzoic acid was collected in two fractions with a total yield of around 55%. The powders were characterized for particle size and morphology using an Olympus BX60 optical microscope. […] The two preparations of benzoic acid differed primarily by the preponderance of ribbon-like particles in the second fraction. The citric acid powder blend was appreciably more dense than the benzoic acid powder blends, and the latter required more careful sweeping of the feeder hopper to promote conveyance. However, the ultimate extrusion, molding, and physical handling characteristics were similar between the blends.

Compound | Particle size
O=C(O)c1ccccc1 [benzoic acid] | 30-150 μm
O=C(O)CC(O)(CC(=O)O)C(=O)O [citric acid] | 10-20 μm
